From US8653263B2 (Janssen Pharmaceutica, priority 2009, dated 2014)

Each compound was assayed against human orexin-2 receptor (Homo sapiens (Human), UniProt O43614) (assay: Human orexin 2 receptor radioligand binding ([3H]-EMPA competition)). Conditions: HEK293 cells stably expressing human orexin-2 receptor; [3H]-EMPA 5 nM final; apparent Ki=IC50/(1+C/Kd), Kd=2 nM; read-out: OR 2 Ki.
Sequence of human orexin-2 receptor (O43614 whole entry): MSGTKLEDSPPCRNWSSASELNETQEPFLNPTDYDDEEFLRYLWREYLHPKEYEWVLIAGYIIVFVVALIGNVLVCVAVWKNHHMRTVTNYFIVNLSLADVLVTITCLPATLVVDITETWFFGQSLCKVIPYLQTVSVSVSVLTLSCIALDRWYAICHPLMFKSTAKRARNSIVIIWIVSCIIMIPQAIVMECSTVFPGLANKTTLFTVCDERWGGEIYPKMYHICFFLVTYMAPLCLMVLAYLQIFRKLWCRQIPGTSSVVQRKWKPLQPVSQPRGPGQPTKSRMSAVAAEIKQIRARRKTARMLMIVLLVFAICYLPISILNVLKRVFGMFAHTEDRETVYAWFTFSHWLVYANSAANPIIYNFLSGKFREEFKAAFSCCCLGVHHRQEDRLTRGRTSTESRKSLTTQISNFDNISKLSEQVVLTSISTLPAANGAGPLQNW

Compound	Ki [nM]
COc1ccc(C(=O)N2CC3CN(c4nc5ccc(F)cc5s4)CC3C2)c(OC)c1 (centres unmarked) [Example 16, 2-{5-[(2,4-Dimethoxyphenyl)carbonyl]hexahydropyrrolo[3,4-c]pyrrol-2(1H)-yl}-6-fluoro-1,3-benzothiazole]	300
O=C(c1cccc2c1OCCO2)N1CC2CN(c3nccc(-c4ccccc4)n3)CC2C1 (centres unmarked) [Example 21, 2-(2,3-Dihydro-1,4-benzodioxin-5-ylcarbonyl)-5-(4-phenylpyrimidin-2-yl)octahydropyrrolo[3,4-c]pyrrole]	352
COc1cc(OC)nc(N2CC3CN(C(=O)c4c(F)cccc4-c4ncccn4)CC3C2)n1 (centres unmarked) [Example 68, 2-(4,6-Dimethoxypyrimidin-2-yl)-5-[(2-fluoro-6-pyrimidin-2-ylphenyl)carbonyl]octahydropyrrolo[3,4-c]pyrrole]	13
COc1ccnc(N2CC3CN(C(=O)c4ccccc4-c4ccc(C)cc4)CC3C2)n1 (centres unmarked) [Example 54, 2-(4-Methoxypyrimidin-2-yl)-5-[(4′-methylbiphenyl-2-yl)carbonyl]octahydro-pyrrolo[3,4-c]pyrrole]	769
CCOc1ccc2ccccc2c1C(=O)N1CC2CN(c3nccc(-c4ccccc4)n3)CC2C1 (centres unmarked) [Example 126, 2-[(2-Ethoxynaphthalen-1-yl)carbonyl]-5-(4-phenylpyrimidin-2-yl)octahydro pyrrolo[3,4-c]pyrrole]	95
Cc1ccccc1C(=O)N1CC2CN(c3cnc4ccccc4n3)CC2C1 (centres unmarked) [Example 30, 2-{5-[(2-Methylphenyl)carbonyl]hexahydropyrrolo[3,4-c]pyrrol-2(1H)-yl}quinoxaline]	790
O=C(c1ccccc1-c1ccccc1)N1CC2CN(c3nccc(-c4cn[nH]c4)n3)CC2C1 (centres unmarked) [Example 61, 2-(Biphenyl-2-ylcarbonyl)-5-[4-(1H-pyrazol-4-yl)pyrimidin-2-yl]octahydro-pyrrolo[3,4-c]pyrrole]	224
COc1ccc(C(=O)N2CC3CN(c4cnc5ccccc5n4)CC3C2)c(OC)c1 (centres unmarked) [Example 191, (2,4-Dimethoxy-phenyl)-(5-quinoxalin-2-yl-hexahydro-pyrrolo[3,4-c]pyrrol-2-yl)-methanone]	2660
CN(C)c1nc(N2CC3CN(C(=O)c4ccc(F)cc4-n4nccn4)CC3C2)cc(C(F)(F)F)n1 (centres unmarked) [Example 111, [5-(2-Dimethylamino-6-trifluoromethyl-pyrimidin-4-yl)-hexahydro-pyrrolo[3,4-c]pyrrol-2-yl]-(4-fluoro-2-[1,2,3]triazol-2-yl-phenyl)-methanone]	28
O=C(c1ccccc1Br)N1CC2CN(c3cnc4ccccc4n3)CC2C1 (centres unmarked) [Example 42, 2-{5-[(2-Bromophenyl)carbonyl]hexahydropyrrolo[3,4-c]pyrrol-2(1H)-yl}quinoxaline]	616
Cc1nc2ccccc2nc1N1CC2CN(C(=O)c3ccccc3-c3ccccc3)CC2C1 (centres unmarked) [Example 66, 2-[5-(Biphenyl-2-ylcarbonyl)hexahydropyrrolo[3,4-c]pyrrol-2(1H)-yl]-3-methylquinoxaline]	449
Cc1cc(C)nc(N2CC3CN(C(=O)c4ccccc4F)CC3C2)n1 (centres unmarked) [Example 53, [5-(4,6-Dimethyl-pyrimidin-2-yl)-hexahydro-pyrrolo[3,4-c]pyrrol-2-yl]-(2-fluoro-phenyl)-methanone]	5000
O=C(c1ccccc1-c1cccs1)N1CC2CN(c3nccc(-c4cn[nH]c4)n3)CC2C1 (centres unmarked) [Example 62, 2-[4-(1H-Pyrazol-4-yl)pyrimidin-2-yl]-5-[(2-thiophen-2-ylphenyl)carbonyl]octahydro-pyrrolo[3,4-c]pyrrole]	42

Next, values leading:

Ki [nM]	Compound
119	O=C(c1ccccc1-c1cccs1)N1CC2CN(c3ncccc3C(F)(F)F)CC2C1 (centres unmarked) [Example 140, 2-[(2-Thiophen-2-ylphenyl)carbonyl]-5-[3-(trifluoromethyl)pyridin-2-yl]octahydro pyrrolo[3,4-c]pyrrole]
9000	COc1ccc(C(=O)N2CC3CN(c4cccc(C)n4)CC3C2)c(OC)c1 (centres unmarked) [Example 185, (2,4-Dimethoxy-phenyl)-[5-(6-methyl-pyridin-2-yl)-hexahydro-pyrrolo[3,4-c]pyrrol-2-yl]-methanone]
17	Cc1cc(C)nc(N2CC3CN(C(=O)c4cccc(F)c4-c4ncco4)CC3C2)n1 (centres unmarked) [Example 376, (5-(4,6-Dimethylpyrimidin-2-yl)hexahydropyrrolo[3,4-c]pyrrol-2(1H)-yl)(3-fluoro-2-(oxazol-2-yl)phenyl)methanone]
10	Cc1cc(C)nc(N2CC3CN(C(=O)c4cccc(F)c4-c4ncccn4)CC3C2)n1 (centres unmarked) [Example 283, 2-(4,6-Dimethylpyrimidin-2-yl)-5-[(3-fluoro-2-pyrimidin-2-ylphenyl)carbonyl]octahydropyrrolo[3,4-c]pyrrole]
104	Cc1ccnc(N2CC3CN(C(=O)c4ccccc4-c4cccs4)CC3C2)c1 (centres unmarked) [Example 136, 2-(4-Methylpyridin-2-yl)-5-[(2-thiophen-2-ylphenyl)carbonyl]octahydropyrrolo[3,4-c]pyrrole]
180	COc1ccccc1S(=O)(=O)N1CC2CN(c3nc(C)cc(C)n3)CC2C1 (centres unmarked) [Example 359, 2-(4,6-Dimethylpyrimidin-2-yl)-5-((2-methoxyphenyl)sulfonyl)octahydropyrrolo[3,4-c]pyrrole]
50	COc1cccc(N2CC3CN(C(=O)c4ccccc4-c4cccs4)CC3C2)n1 (centres unmarked) [Example 137, 2-(6-Methoxypyridin-2-yl)-5-[(2-thiophen-2-ylphenyl)carbonyl]octahydro pyrrolo[3,4-c]pyrrole]
111	COc1cc(OC)nc(N2CC3CN(C(=O)c4cc(C)ccc4-n4nccn4)CC3C2)n1 (centres unmarked) [Example 129, 2-(4,6-Dimethoxypyrimidin-2-yl)-5-{[5-methyl-2-(2H-1,2,3-triazol-2-yl)phenyl]carbonyl}octahydropyrrolo[3,4-c]pyrrole]
45	COc1ccnc(N2CC3CN(C(=O)c4ccc(F)cc4-n4nccn4)CC3C2)n1 (centres unmarked) [Example 159, 2-{[4-Fluoro-2-(2H-1,2,3-triazol-2-yl)phenyl]carbonyl}-5-(4-methoxypyrimidin-2-yl)octahydropyrrolo[3,4-c]pyrrole]
3620	COc1cc(Cl)ccc1C(=O)N1CC2CN(c3nc(C)cc(C)n3)CC2C1 (centres unmarked) [Example 222, 2-[(4-Chloro-2-methoxyphenyl)carbonyl]-5-(4,6-dimethylpyrimidin-2-yl)octahydropyrrolo[3,4-c]pyrrole]
288	Cc1cc(C)nc(N2CC3CN(C(=O)c4ccc(C)nc4-n4ccnn4)CC3C2)n1 (centres unmarked) [Example 336, [5-(4,6-Dimethyl-pyrimidin-2-yl)-hexahydro-pyrrolo[3,4-c]pyrrol-2-yl]-(6-methyl-2-[1,2,3]triazol-1-yl-pyridin-3-yl)-methanone]
266	O=C(c1ccccc1-n1nccn1)N1CC2CN(c3nc(Cl)ncc3F)CC2C1 (centres unmarked) [Example 291, 2-(2-Chloro-5-fluoropyrimidin-4-yl)-5-{[2-(2H-1,2,3-triazol-2-yl)phenyl]carbonyl}octahydropyrrolo[3,4-c]pyrrole]

Same assay, conditions: read-out: OR 2 Ki

Compound	Ki [nM]
Cc1nc(N2CC3CN(C(=O)c4c(F)cccc4-n4nccn4)CC3C2)cc(=O)[nH]1 (centres unmarked) [Example 252, 6-[5-{[2-Fluoro-6-(2H-1,2,3-triazol-2-yl)phenyl]carbonyl}hexahydropyrrolo[3,4-c]pyrrol-2(1H)-yl]-2-methylpyrimidin-4(3H)-one]	≥ 10000
